PubChem BioAssay AID1963969 (Molecular Pharmacology Branch, DTP, NCI, 2024)
pIC50: −log10 of the molar value. Where “and” joins values, the source holds several entries; their conditions need not be identical. Equal values may be shown once.

Tested on: 817829-284-R-J1-PDC multi-cell spheroid viability
Assay: Anticancer human tumor 817829-284-R-J1-PDC patient-derived colon adenocarcinoma cell line growth inhibition [PI3K]
Settings: for viability, T/C: stronger effect = lower value; active means viability on the fitted dose curve at most 10% of control; inactive means the rest
Outline: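 Tumor cells grown as multi-cell spheroids with HUVEC endothelial cells and MSC fibroblast-like stroma were treated with targeted agents combined with inavolisib, alpelisib, duvelisib or copanlisib. Doses fell in half-log steps from near clinical Cmax, else from 10 microM. Viability was measured.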

[1] = curve of first compound, second compound 0.0316 µM
[2] = curve of first compound, second compound 0.1 µM
[3] = curve of first compound, second compound 0.316 µM
[4] = curve of first compound, second compound 1 µM
[5] = curve of first compound, second compound 3.16 µM
[6] = curve of first compound, second compound 10 µM
[7] = second compound 0.0316 µM, first compound 0.0316 µM
[8] = second compound 0.0316 µM, first compound 0.1 µM
[9] = second compound 0.0316 µM, first compound 0.316 µM
[10] = second compound 0.0316 µM, first compound 1 µM
[11] = second compound 0.0316 µM, first compound 3.16 µM
[12] = second compound 0.0316 µM, first compound 10 µM
[13] = second compound 0.1 µM, first compound 0.0316 µM
[14] = second compound 0.1 µM, first compound 0.1 µM
[15] = second compound 0.1 µM, first compound 0.316 µM
[16] = second compound 0.1 µM, first compound 1 µM
[17] = second compound 0.1 µM, first compound 3.16 µM
[18] = second compound 0.1 µM, first compound 10 µM
[19] = second compound 0.316 µM, first compound 0.0316 µM
[20] = second compound 0.316 µM, first compound 0.1 µM
[21] = second compound 0.316 µM, first compound 0.316 µM
[22] = second compound 0.316 µM, first compound 1 µM
[23] = second compound 0.316 µM, first compound 3.16 µM
[24] = second compound 0.316 µM, first compound 10 µM
[25] = second compound 1 µM, first compound 0.0316 µM
[26] = second compound 1 µM, first compound 0.1 µM
[27] = second compound 1 µM, first compound 0.316 µM
[28] = second compound 1 µM, first compound 1 µM
[29] = second compound 1 µM, first compound 3.16 µM
[30] = second compound 1 µM, first compound 10 µM
[31] = curve of first compound, second compound 0.00316 µM
[32] = curve of first compound, second compound 0.01 µM
[33] = second compound 0.00316 µM, first compound 0.0316 µM
[34] = second compound 0.00316 µM, first compound 0.1 µM
[35] = second compound 0.00316 µM, first compound 0.316 µM
[36] = second compound 0.00316 µM, first compound 1 µM
[37] = second compound 0.00316 µM, first compound 3.16 µM
[38] = second compound 0.00316 µM, first compound 10 µM
[39] = second compound 0.01 µM, first compound 0.0316 µM
[40] = second compound 0.01 µM, first compound 0.1 µM
[41] = second compound 0.01 µM, first compound 0.316 µM
[42] = second compound 0.01 µM, first compound 1 µM
[43] = second compound 0.01 µM, first compound 3.16 µM
[44] = second compound 0.01 µM, first compound 10 µM
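Further: spheroids exposed to agents for seven days before readout.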
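Wherever viability, T/C is given: percent of vehicle DMSO control viability which is 100%.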

CC(Cn1ccc(-c2ccc(C#N)c(Cl)c2)n1)NC(=O)c1cc(C(C)O)[nH]n1 (stereo not given) + Cc1nc(NC(=O)N2CCCC2C(N)=O)sc1-c1ccnc(C(C)(C)C(F)(F)F)c1
5.58: pIC50 [4]
< 5.00: pIC50 [1] | pIC50 [3] | pIC50 [5]
> 7.50: pIC50 [2] | pIC50 [6]
inactive: viability, T/C [7] 72.1% | viability, T/C [8] 92.1% | viability, T/C [9] 118% | viability, T/C [10] 82.5% | viability, T/C [11] 64.8% | viability, T/C [12] 67.4% | viability, T/C [13] 42.2% | viability, T/C [14] 81.5% | viability, T/C [15] 96.1% | viability, T/C [16] 103% | viability, T/C [17] 85.2% | viability, T/C [18] 71.1% | viability, T/C [19] 56.9% | viability, T/C [20] 94.3% | viability, T/C [21] 72.3% | viability, T/C [22] 72.1% | viability, T/C [23] 75.8% | viability, T/C [24] 54.4% | viability, T/C [25] 53.1% | viability, T/C [26] 89.8% | viability, T/C [27] 80.5% | viability, T/C [28] 71.5% | viability, T/C [29] 42.1% | viability, T/C [30] 49.5% | viability, T/C (second compound 3.16 µM, first compound 0.0316 µM) 66.7% | viability, T/C (second compound 3.16 µM, first compound 0.1 µM) 55.2% | viability, T/C (second compound 3.16 µM, first compound 0.316 µM) 50.1% | viability, T/C (second compound 3.16 µM, first compound 1 µM) 89.7% | viability, T/C (second compound 3.16 µM, first compound 3.16 µM) 42% | viability, T/C (second compound 3.16 µM, first compound 10 µM) 57.2% | viability, T/C (second compound 10 µM, first compound 0.0316 µM) 55.8% | viability, T/C (second compound 10 µM, first compound 0.1 µM) 31.7% | viability, T/C (second compound 10 µM, first compound 0.316 µM) 47.2% | viability, T/C (second compound 10 µM, first compound 1 µM) 40.9% | viability, T/C (second compound 10 µM, first compound 3.16 µM) 59.4% | viability, T/C (second compound 10 µM, first compound 10 µM) 35%

Cn1cnc2c(F)c(Nc3ccc(Br)cc3Cl)c(C(=O)NOCCO)cc21 + Cc1nc(NC(=O)N2CCCC2C(N)=O)sc1-c1ccnc(C(C)(C)C(F)(F)F)c1
6.80: pIC50 [3]
6.54: pIC50 [1]
inactive: viability, T/C (second compound 0.0316 µM, first compound 0.00949 µM) 96.6% | viability, T/C (second compound 0.0316 µM, first compound 0.03 µM) 63% | viability, T/C (second compound 0.0316 µM, first compound 0.0949 µM) 67.3% | viability, T/C (second compound 0.0316 µM, first compound 0.3 µM) 44.5% | viability, T/C (second compound 0.0316 µM, first compound 0.949 µM) 50.2% | viability, T/C (second compound 0.0316 µM, first compound 3 µM) 22.4% | viability, T/C (second compound 0.1 µM, first compound 0.00949 µM) 80.8% | viability, T/C (second compound 0.1 µM, first compound 0.03 µM) 62.1% | viability, T/C (second compound 0.1 µM, first compound 0.0949 µM) 59.7% | viability, T/C (second compound 0.1 µM, first compound 0.3 µM) 46.8% | viability, T/C (second compound 0.1 µM, first compound 0.949 µM) 49.6% | viability, T/C (second compound 0.1 µM, first compound 3 µM) 31.2% | viability, T/C (second compound 0.316 µM, first compound 0.00949 µM) 82.2% | viability, T/C (second compound 0.316 µM, first compound 0.03 µM) 60.4% | viability, T/C (second compound 0.316 µM, first compound 0.0949 µM) 62.8% | viability, T/C (second compound 0.316 µM, first compound 0.3 µM) 39.6% | viability, T/C (second compound 0.316 µM, first compound 0.949 µM) 35.3% | viability, T/C (second compound 0.316 µM, first compound 3 µM) 22.8% | viability, T/C (second compound 1 µM, first compound 0.00949 µM) 67.7% | viability, T/C (second compound 1 µM, first compound 0.03 µM) 44.9% | viability, T/C (second compound 1 µM, first compound 0.0949 µM) 48.2% | viability, T/C (second compound 1 µM, first compound 0.3 µM) 62% | viability, T/C (second compound 1 µM, first compound 0.949 µM) 27.3% | viability, T/C (second compound 1 µM, first compound 3 µM) 29.4% | viability, T/C (second compound 3.16 µM, first compound 0.00949 µM) 118% | viability, T/C (second compound 3.16 µM, first compound 0.03 µM) 88.8% | viability, T/C (second compound 3.16 µM, first compound 0.0949 µM) 74.1% | viability, T/C (second compound 3.16 µM, first compound 0.3 µM) 70.2% | viability, T/C (second compound 3.16 µM, first compound 0.949 µM) 38.8% | viability, T/C (second compound 3.16 µM, first compound 3 µM) 24.4% | viability, T/C (second compound 10 µM, first compound 0.00949 µM) 74.8% | viability, T/C (second compound 10 µM, first compound 0.03 µM) 70% | viability, T/C (second compound 10 µM, first compound 0.0949 µM) 62.4% | viability, T/C (second compound 10 µM, first compound 0.3 µM) 50.4% | viability, T/C (second compound 10 µM, first compound 0.949 µM) 31.1% | viability, T/C (second compound 10 µM, first compound 3 µM) 11.5%
6.53: pIC50 [6]
6.50: pIC50 [2]
6.87: pIC50 [4]
6.24: pIC50 [5]

CNC(=O)c1ccc(N2C(=S)N(c3ccc(C#N)c(C(F)(F)F)c3)C(=O)C2(C)C)cc1F + COc1c(OCCCN2CCOCC2)ccc2c3n(c(=NC(=O)c4cnc(N)nc4)nc12)CCN3
inactive: viability, T/C [33] 72.7% | viability, T/C [34] 107% | viability, T/C [35] 118% | viability, T/C [36] 110% | viability, T/C [37] 70.9% | viability, T/C [38] 55.9% | viability, T/C [39] 102% | viability, T/C [40] 107% | viability, T/C [41] 117% | viability, T/C [42] 58.2% | viability, T/C [43] 81.3% | viability, T/C [44] 55% | viability, T/C [7] 52.3% | viability, T/C [8] 61.2% | viability, T/C [9] 73.6% | viability, T/C [10] 105% | viability, T/C [11] 49.2% | viability, T/C [12] 27.3% | viability, T/C [13] 35.4% | viability, T/C [14] 38.6% | viability, T/C [15] 31.2% | viability, T/C [16] 36.3% | viability, T/C [17] 31.5% | viability, T/C [18] 21.7% | viability, T/C [19] 19.9% | viability, T/C [20] 23% | viability, T/C [21] 23.2% | viability, T/C [22] 18.5% | viability, T/C [23] 19.1% | viability, T/C [24] 17.7% | viability, T/C [25] 11.2% | viability, T/C [26] 12.2% | viability, T/C [27] 9.45% | viability, T/C [28] 13.1% | viability, T/C [29] 11.1% | viability, T/C [30] 9.44%
< 5.00: pIC50 [31] | pIC50 [32]
5.52: pIC50 [1]
> 7.50: pIC50 [2] | pIC50 [3] | pIC50 [4]

CCCS(=O)(=O)Nc1ccc(F)c(C(=O)c2c[nH]c3ncc(-c4ccc(Cl)cc4)cc23)c1F + COc1c(OCCCN2CCOCC2)ccc2c3n(c(=NC(=O)c4cnc(N)nc4)nc12)CCN3
7.50: pIC50 [2]
5.37: pIC50 [32]
> 7.50: pIC50 [3] | pIC50 [4]
active: viability, T/C [44] 8.97% | viability, T/C [27] 8.54% | viability, T/C [28] 6.57% | viability, T/C [29] 9.78% | viability, T/C [30] 4.54%
5.64: pIC50 [1]
5.72: pIC50 [31]
inactive: viability, T/C [33] 117% | viability, T/C [34] 87% | viability, T/C [35] 71.5% | viability, T/C [36] 66.4% | viability, T/C [37] 59.5% | viability, T/C [38] 10.7% | viability, T/C [39] 104% | viability, T/C [40] 53.6% | viability, T/C [41] 66.5% | viability, T/C [42] 70.9% | viability, T/C [43] 64.1% | viability, T/C [7] 45.4% | viability, T/C [8] 70% | viability, T/C [9] 43.8% | viability, T/C [10] 64.1% | viability, T/C [11] 47.9% | viability, T/C [12] 10.2% | viability, T/C [13] 34.4% | viability, T/C [14] 39.3% | viability, T/C [15] 71.2% | viability, T/C [16] 26.8% | viability, T/C [17] 28.2% | viability, T/C [18] 14.4% | viability, T/C [19] 21.7% | viability, T/C [20] 19.6% | viability, T/C [21] 21.3% | viability, T/C [22] 16% | viability, T/C [23] 16.1% | viability, T/C [24] 9.88% | viability, T/C [25] 10% | viability, T/C [26] 14.3%

CC(C)n1nc(-c2ccc3oc(N)nc3c2)c2c(N)ncnc21
7.48 and 7.68 and 7.61: pIC50 (curve of compound)
inactive: viability, T/C (compound 0.000316 µM) 54.7% and 69.8% and 94.8% | viability, T/C (compound 0.001 µM) 120% and 96.8% and 70% | viability, T/C (compound 0.00316 µM) 68.2% and 77.3% and 63.2% | viability, T/C (compound 0.01 µM) 52.8% and 72.2% and 93.4% | viability, T/C (compound 0.0316 µM) 58.9% and 37.7% and 41.6% | viability, T/C (compound 0.1 µM) 21.2% and 24% and 17.7%
